Earlier results as cited in PubChem BioAssay AID1259409 (Chemical Carcinogenesis Research Information System (CCRIS), 2018).
Values joined by “and” are separate entries in the source; they are usually repeats but may differ in a detail not shown here. Equal entries are not always repeated.

System: rodent chemically induced tumor inhibition, incidence and multiplicity
Test: CCRIS tumor inhibitor studies
Details: Species: RAT, Promoter: NONE USED

SMILES: CN1C(C(=O)Nc2ccccn2)=C(O)c2ccccc2S1(=O)=O
- tumour outcome (control, treated, inhibition, significance) (Carcinogen: AZOXYMETHANE, 25843-45-2, Dose [Inhibitor]: 0, 400 PPM IN DIET BEGINNING 1 WK PRIOR TO CARCINOGEN TREATMENT FOR DURATION OF STUDY (STUDY DURATION: 54 WK), Route [Inhibitor]: ORAL, Strain/Sex: F344/MALE, Target Tissue: Type of Lesion: COLON: ADENOCARCINOMA, Dose [Carcinogen]: 15 MG/KG/BW 1/WK FOR 2 WK): 58%, 19%, 67%, p<0.01
- tumour outcome (control, treated, inhibition, significance) (Carcinogen: AZOXYMETHANE, 25843-45-2, Dose [Inhibitor]: 0, 400 PPM IN DIET BEGINNING 1 WK PRIOR TO CARCINOGEN TREATMENT FOR DURATION OF STUDY (STUDY DURATION: 54 WK), Route [Inhibitor]: ORAL, Strain/Sex: F344/MALE, Target Tissue: Type of Lesion: COLON: ADENOMA, Dose [Carcinogen]: 15 MG/KG/BW 1/WK FOR 2 WK): 6%, 3%, 50%, not calculated
- tumour outcome (control, treated, inhibition, significance) (Carcinogen: AZOXYMETHANE, 25843-45-2, Dose [Inhibitor]: 0, 400 PPM IN DIET BEGINNING PRIOR TO CARCINOGEN DOSE AND CONTINUING FOR DURATION OF STUDY (STUDY DURATION: 54 WK), Route [Inhibitor]: ORAL, Strain/Sex: F344/MALE, Target Tissue: Type of Lesion: COLON: ADENOCARCINOMA, Dose [Carcinogen]: 15 MG/KG 1/WK FOR 2 WK): 72%, 22%, 69%, p<0.001
- tumour outcome (control, treated, inhibition, significance) (Carcinogen: AZOXYMETHANE, 25843-45-2, Dose [Inhibitor]: 0, 400 PPM IN DIET BEGINNING PRIOR TO CARCINOGEN DOSE AND CONTINUING FOR DURATION OF STUDY (STUDY DURATION: 54 WK), Route [Inhibitor]: ORAL, Strain/Sex: F344/MALE, Target Tissue: Type of Lesion: COLON: ADENOMA, Dose [Carcinogen]: 15 MG/KG 1/WK FOR 2 WK): 14%, 6%, 57%, not calculated
- tumour outcome (control, treated, inhibition, significance) (Carcinogen: AZOXYMETHANE, 25843-45-2, Dose [Inhibitor]: 0, 400 PPM IN DIET BEGINNING PRIOR TO CARCINOGEN DOSE AND CONTINUING FOR DURATION OF STUDY (STUDY DURATION: 54 WK), Route [Inhibitor]: ORAL, Strain/Sex: F344/MALE, Target Tissue: Type of Lesion: SMALL INTESTINE: ADENOCARCINOMA, Dose [Carcinogen]: 15 MG/KG 1/WK FOR 2 WK): 50%, 8%, 84%, p<0.001
- tumour outcome (control, treated, inhibition, significance) (Carcinogen: AZOXYMETHANE, 25843-45-2, Dose [Inhibitor]: 0, 400 PPM IN DIET BEGINNING PRIOR TO CARCINOGEN DOSE AND CONTINUING FOR DURATION OF STUDY (STUDY DURATION: 54 WK), Route [Inhibitor]: ORAL, Strain/Sex: F344/MALE, Target Tissue: Type of Lesion: SMALL INTESTINE: ADENOMA, Dose [Carcinogen]: 15 MG/KG 1/WK FOR 2 WK): 3%, 0%, 100%, not calculated
- tumour outcome (control, treated, inhibition, significance) (Carcinogen: AZOXYMETHANE, 25843-45-2, Dose [Inhibitor]: 0, 400 PPM IN DIET FOR 56 WK BEGINNING 2 WK PRIOR TO CARCINOGEN TREATMENT (STUDY DURATION: 56 WK), Route [Inhibitor]: ORAL, Strain/Sex: F344/MALE, Target Tissue: Type of Lesion: COLON(DISTAL): TUMOR, Dose [Carcinogen]: 15 MG/KG 1/WK FOR 2 WK): 52%, 22%, 58%, p<0.05
- tumour outcome (control, treated, inhibition, significance) (Carcinogen: AZOXYMETHANE, 25843-45-2, Dose [Inhibitor]: 0, 400 PPM IN DIET FOR 56 WK BEGINNING 2 WK PRIOR TO CARCINOGEN TREATMENT (STUDY DURATION: 56 WK), Route [Inhibitor]: ORAL, Strain/Sex: F344/MALE, Target Tissue: Type of Lesion: COLON(PROXIMAL): TUMOR, Dose [Carcinogen]: 15 MG/KG 1/WK FOR 2 WK): 38%, 7%, 82%, p<0.001
- tumour outcome (control, treated, inhibition, significance) (Carcinogen: AZOXYMETHANE, 25843-45-2, Dose [Inhibitor]: 0, 400 PPM IN DIET FOR 56 WK BEGINNING 2 WK PRIOR TO CARCINOGEN TREATMENT (STUDY DURATION: 56 WK), Route [Inhibitor]: ORAL, Strain/Sex: F344/MALE, Target Tissue: Type of Lesion: SMALL INTESTINE(DISTAL): TUMOR, Dose [Carcinogen]: 15 MG/KG 1/WK FOR 2 WK): 12%, 9%, 25%, not significant
- tumour outcome (control, treated, inhibition, significance) (Carcinogen: AZOXYMETHANE, 25843-45-2, Dose [Inhibitor]: 0, 400 PPM IN DIET FOR 56 WK BEGINNING 2 WK PRIOR TO CARCINOGEN TREATMENT (STUDY DURATION: 56 WK), Route [Inhibitor]: ORAL, Strain/Sex: F344/MALE, Target Tissue: Type of Lesion: SMALL INTESTINE(PROXIMAL): TUMOR, Dose [Carcinogen]: 15 MG/KG 1/WK FOR 2 WK): 33%, 9%, 73%, p<0.05
- tumour outcome (control, treated, inhibition, significance) (Carcinogen: INTRARECTAL, Dose [Inhibitor]: N-METHYLNITROSOUREA, 684-93-5, Route [Inhibitor]: 0, 130 MG/KG VEGETABLE DIET (2.5 MG/D) BEGINNING 7 D POST LAST CARCINOGEN TREATMENT AND CONTINUING FOR STUDY DURATION (S, Strain/Sex: CD-1/MALE, Target Tissue: Type of Lesion: INTESTINE: TUMOR): 9/9 (100%), 5/10 (50%), 50%, not calculated
- tumour outcome (control, treated, inhibition, significance) (Carcinogen: METHYLAZOXYMETHANOL, 590-96-5, Dose [Inhibitor]: 8 MG/KG BW/D IN DIET FOR 19 WK STARTING 7 D AFTER CARCINOGEN TREATMENT AND CONTINUING FOR DURATION OF STUDY (STUDY DURAT, Route [Inhibitor]: ORAL, Strain/Sex: SPRAGUE-DAWLEY/MALE, Target Tissue: Type of Lesion: INTESTINES: TUMOR, Dose [Carcinogen]: 30 MG/KG BW ONCE): 9/9 (100%), 4/10 (40%), 60%, not calculated
- tumour outcome (control, treated, inhibition, significance) (Carcinogen: METHYLAZOXYMETHANOL, 590-96-5, Dose [Inhibitor]: 8.25 MG/KG BW/D IN DIET FOR 19 WK STARTING 7 D AFTER CARCINOGEN TREATMENT AND CONTINUING FOR DURATION OF STUDY (STUDY DU, Route [Inhibitor]: ORAL, Strain/Sex: SPRAGUE-DAWLEY/MALE, Target Tissue: Type of Lesion: INTESTINES: TUMOR, Dose [Carcinogen]: 30 MG/KG BW ONCE): 9/10 (90%), 2/10 (20%), 78%, not calculated and 9/10 (90%), 7/11 (64%), 29%, not calculated
- tumour outcome (control, treated, inhibition, significance) (Carcinogen: METHYLAZOXYMETHANOL, 590-96-5, Dose [Inhibitor]: 12.5 MG/KG BW/D IN DIET FOR 19 WK STARTING 7 D AFTER CARCINOGEN TREATMENT AND CONTINUING FOR DURATION OF STUDY (STUDY DU, Route [Inhibitor]: ORAL, Strain/Sex: SPRAGUE-DAWLEY/MALE, Target Tissue: Type of Lesion: INTESTINES: TUMOR, Dose [Carcinogen]: 30 MG/KG BW ONCE): 8/9 (88%), 3/9 (33%), 63%, not calculated
